# From patent US11407748B2, “Substituted pyrido[1,2-a]pyrimidines and pyrazino[1,2-a]pyrimidines for enhancing AMPA receptor function” (Takeda Pharmaceutical Company Limited, priority 2017, dated 2022)
# Target: T1, hGluR1 flip (Homo sapiens, UniProt P42261)
# T1 construct: expressed in transfected cells; host or cells: CHO-K1
# Experiment: AMPA receptor function-enhancing activity using calcium influx as index
# Format: cell-based
# Conditions: test compound 30 μM with 3 mM glutamic acid; CHO-K1/GluR1 flip/stargazin-expressing cells; 100% = 3 mM glutamic acid + 300 μM cyclothiazide, 0% = 3 mM glutamic acid alone
# Text: Experimental Example 1 Measurement Method of AMPA Receptor Function-Enhancing Activity of Compound Using Calcium Influx as Index
# (1) Construction of Expression Gene
# Human GluR^1 flip cDNA was amplified by PCR method using forward primer […] (SEQ ID NO: 1) and reverse primer […] (SEQ ID NO: 2) artificially synthesized using human brain-derived cDNA (BD Bioscience) as a template. The amplified product was digested with restriction enzymes EcoRI, NotI (TAKARA SHUZO CO. LTD.) and incorporated into the same site of pcDNA3.1 (+) (Invitrogen) to construct pcDNA3.1(+)/human GluR1 flip gene. Human stargazin cDNA was amplified by PCR method using forward primer […] (SEQ ID NO: 3) and reverse primer […] (SEQ ID NO: 4) artificially synthesized using human hippocampus cDNA as a template. The amplified product was digested with restriction enzymes XhoI, BamHI (TAKARA SHUZO CO. LTD.) and incorporated into the same site of pcDNA3.1(−) (Invitrogen) to construct pcDNA3.1 Zeo(−)/human stargazing gene.
# (2) Construction of GluR1 Flip/Stargazin Expressing Cell
# CHO-K1 cells passaged in a culture medium (Ham's F12 medium (Invitrogen) added with 10% inactivated fetal bovine serum (Morgate) and penicillin, streptomycin (Invitrogen)) were detached using 0.05% trypsin and 0.53 mM EDTA (Invitrogen) diluted with D-PBS(−). The detached cells were suspended in a culture medium, and recovered by centrifugation at 1,000 rpm. The recovered cells were re-suspended in D-PBS(−) and added into 0.4 cm electroporation cuvette (BioRad). pcDNA3.1(+)/human GluR1 flip gene (5 μg) and pcDNA3.1 Zeo(−)/human stargazin gene (15 μg) were added, and introduced into CHO-K1 cells under the conditions of 950 μFd, […] and using Gene Pulser II (BioRad). The introduced cells were cultured overnight in a culture medium. The next day, using a selection medium (culture medium added with zeocin (Invitrogen) at 250 μg/mL), the cells were plated in a 96 well plate at 250 cells/well. The clones showing drug resistance were selected, and GluR1 flip/stargazin expression clones were selected by an assay method shown below using calcium influx as an index.
# (3) Measurement Method of AMPA Receptor Function-Enhancing Activity of Compound, Using Calcium Influx as an Index
# CHO-K1/GluR1 flip/stargazin-expressing cells were plated on a 384 well black bottom transparent plate, and cultured for 2 days in a CO2 incubator (SANYO ELECTRIC Co. Ltd.) at 37° C. The medium of the cell plate was removed. A calcium indicator (Calcium5 Assay Kit, Molecular Devices) was diluted with an assay buffer (HESS (Thermo Fisher Scientific), 0.1% BSA (Merck Millipoer) and 10 mM HEPES (Thermo Fisher Scientific)), and 1.25 mM probenecid (Dojindo Laboratories) was added thereto. The mixture prepared above was added at 30 μL/well (100 μL/well in case of 96 wells) to the well, and the well was left standing in 37° C., CO2 incubator for 1 hr. The cell plate was set in CellLux (PerkinElmer), a mixture (15 μL) (50 μL/well in case of 96 wells) of 9 mM glutamic acid (final concentration 3 mM) diluted with an assay buffer and a test compound (test compound concentration 30 μM) was added thereto, and variation in the amount of fluorescence was measured for 3 min. The variation of fluorescence level of a well added with final concentration 3 mM of glutamic acid and 300 μM cyclothiazide (TOCRIS) was defined as 100%, the variation of fluorescence level of a well added with final concentration 3 mM of glutamic acid alone was defined as 0%, and the activity of the compound was calculated by the following formula. activity (%)=(X−C)/(T−C)×100 • T: variation of fluorescence level of well added with final concentration 3 mM of glutamic acid and 300 μM cyclothiazide • C: variation of fluorescence level of well added with final concentration 3 mM of glutamic acid alone • X: variation of fluorescence level of well added with test compound
# T1 sequence (P42261 19-906 isoform P42261-2 limits assumed): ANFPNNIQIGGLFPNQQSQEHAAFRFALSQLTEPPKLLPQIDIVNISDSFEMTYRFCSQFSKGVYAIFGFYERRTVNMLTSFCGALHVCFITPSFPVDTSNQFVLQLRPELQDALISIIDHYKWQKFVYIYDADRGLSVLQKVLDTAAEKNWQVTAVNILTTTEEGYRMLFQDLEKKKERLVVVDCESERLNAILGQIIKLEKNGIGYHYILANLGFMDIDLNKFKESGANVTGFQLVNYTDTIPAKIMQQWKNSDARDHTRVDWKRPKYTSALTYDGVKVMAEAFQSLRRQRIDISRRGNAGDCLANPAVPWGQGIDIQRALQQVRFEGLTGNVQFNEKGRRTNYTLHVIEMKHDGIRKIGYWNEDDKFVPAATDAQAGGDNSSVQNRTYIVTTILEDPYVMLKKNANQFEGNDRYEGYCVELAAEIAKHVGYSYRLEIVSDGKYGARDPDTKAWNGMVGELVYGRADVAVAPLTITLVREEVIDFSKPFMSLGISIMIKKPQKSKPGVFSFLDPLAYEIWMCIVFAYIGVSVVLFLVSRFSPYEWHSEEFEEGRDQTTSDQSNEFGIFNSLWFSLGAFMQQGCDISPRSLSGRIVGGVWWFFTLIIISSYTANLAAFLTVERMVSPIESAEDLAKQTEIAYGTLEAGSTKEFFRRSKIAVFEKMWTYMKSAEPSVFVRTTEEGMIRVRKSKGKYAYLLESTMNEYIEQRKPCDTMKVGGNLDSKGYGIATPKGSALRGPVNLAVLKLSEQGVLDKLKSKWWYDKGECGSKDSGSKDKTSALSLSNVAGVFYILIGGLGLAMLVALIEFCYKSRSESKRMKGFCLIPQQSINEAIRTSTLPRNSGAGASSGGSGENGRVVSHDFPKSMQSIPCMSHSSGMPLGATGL
# T1 sequence (Q9Y698 whole entry partner): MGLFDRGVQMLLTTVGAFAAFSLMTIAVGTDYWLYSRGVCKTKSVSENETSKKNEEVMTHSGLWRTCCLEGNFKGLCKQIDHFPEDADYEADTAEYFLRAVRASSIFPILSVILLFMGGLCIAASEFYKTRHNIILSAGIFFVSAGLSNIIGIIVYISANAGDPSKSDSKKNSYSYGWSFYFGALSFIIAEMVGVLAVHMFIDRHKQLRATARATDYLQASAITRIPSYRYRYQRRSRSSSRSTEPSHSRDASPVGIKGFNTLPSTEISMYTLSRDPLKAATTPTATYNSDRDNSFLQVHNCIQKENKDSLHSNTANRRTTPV
activation at 30 µM [%],hGluR1 flip/30 μM (%),SMILES
102,,"CN(C(=O)c1ccc(-c2cccn3c(=O)c(Br)c(C(F)(F)F)nc23)cc1F)C1CCOCC1 [Example 84, 4-(3-bromo-4-oxo-2-(trifluoromethyl)-4H-pyrido[1,2-a]pyrimidin-9-yl)-2-fluoro-N-methyl-N-(tetrahydro-2H-pyran-4-yl)benzamide]"
109,,"Cc1c(C(F)(F)F)nc2c(-c3ccc(C(=O)NC4CCOCC4)c(F)c3)cccn2c1=O [Example 85, 2-fluoro-4-(3-methyl-4-oxo-2-(trifluoromethyl)-4H-pyrido[1,2-a]pyrimidin-9-yl)-N-(tetrahydro-2H-pyran-4-yl)benzamide]"
103,,"Cc1c(C(F)(F)F)nc2c(-c3ccc(C(=O)N[C@H]4CCOC4)c(F)c3)cccn2c1=O [Example 86, 2-fluoro-4-(3-methyl-4-oxo-2-(trifluoromethyl)-4H-pyrido[1,2-a]pyrimidin-9-yl)-N-((3S)-tetrahydrofuran-3-yl)benzamide]"
101,,"COC1CCN(C(=O)c2ccc(-c3cccn4c(=O)c(C)c(C(F)(F)F)nc34)cc2F)CC1 [Example 87, 9-(3-fluoro-4-((4-methoxypiperidin-1-yl)carbonyl)phenyl)-3-methyl-2-(trifluoromethyl)-4H-pyrido[1,2-a]pyrimidin-4-one]"
90.3,,"COC1CCN(C(=O)c2ccc(-c3cccn4c(=O)c(Br)c(C(F)(F)F)nc34)cc2F)CC1 [Example 88, 3-bromo-9-(3-fluoro-4-((4-methoxypiperidin-1-yl)carbonyl)phenyl)-2-(trifluoromethyl)-4H-pyrido[1,2-a]pyrimidin-4-one]"
82.8,,"COC1CCN(C(=O)c2ccc(-c3cccn4c(=O)cc(C(F)(F)F)nc34)cc2F)CC1 [Example 89, 9-(3-fluoro-4-((4-methoxypiperidin-1-yl)carbonyl)phenyl)-2-(trifluoromethyl)-4H-pyrido[1,2-a]pyrimidin-4-one]"
89.3,,"CO[C@@H]1CCN(C(=O)c2ccc(-c3cccn4c(=O)c(C)c(C(F)(F)F)nc34)cc2F)C1 [Example 90, 9-(3-fluoro-4-(((3R)-3-methoxypyrrolidin-1-yl)carbonyl)phenyl)-3-methyl-2-(trifluoromethyl)-4H-pyrido[1,2-a]pyrimidin-4-one]"
80.9,,"CO[C@@H]1CCN(C(=O)c2ccc(-c3cccn4c(=O)c(Br)c(C(F)(F)F)nc34)cc2F)C1 [Example 91, 3-bromo-9-(3-fluoro-4-(((3R)-3-methoxypyrrolidin-1-yl)carbonyl)phenyl)-2-(trifluoromethyl)-4H-pyrido[1,2-a]pyrimidin-4-one]"
78.9,,"O=C(N[C@H]1CCCOC1)c1ccc(-c2cccn3c(=O)c(Br)c(C(F)(F)F)nc23)cc1 [Example 92, 4-(3-bromo-4-oxo-2-(trifluoromethyl)-4H-pyrido[1,2-a]pyrimidin-9-yl)-N-((3S)-tetrahydro-2H-pyran-3-yl)benzamide]"
88.2,,"Cc1c(C(F)(F)F)nc2c(-c3ccc(C(=O)N[C@H]4CCCOC4)cc3)cccn2c1=O [Example 93, 4-(3-methyl-4-oxo-2-(trifluoromethyl)-4H-pyrido[1,2-a]pyrimidin-9-yl)-N-((3S)-tetrahydro-2H-pyran-3-yl)benzamide]"
94.4,,"CN(C(=O)c1ccc(-c2cccn3c(=O)c(Br)c(C(F)(F)F)nc23)cc1F)C1CC1 [Example 94, 4-(3-bromo-4-oxo-2-(trifluoromethyl)-4H-pyrido[1,2-a]pyrimidin-9-yl)-N-cyclopropyl-2-fluoro-N-methylbenzamide]"
83.2,,"CCN(C(=O)c1ccc(-c2cccn3c(=O)c(Br)c(C(F)(F)F)nc23)cc1F)C1CC1 [Example 95, 4-(3-bromo-4-oxo-2 (trifluoromethyl)-4H-pyrido[1,2 a]pyrimidin-9-yl)-N-cyclopropyl-N-ethyl-2-fluorobenzamide]"
97.2,,"CN(CC1CC1)C(=O)c1ccc(-c2cccn3c(=O)c(Br)c(C(F)(F)F)nc23)cc1F [Example 96, 4-(3-bromo-4-oxo-2-(trifluoromethyl)-4H-pyrido[1,2-a]pyrimidin-9-yl)-N-(cyclopropylmethyl)-2-fluoro-N-methylbenzamide]"
76.9,,"CN(CCC#N)C(=O)c1ccc(-c2cccn3c(=O)c(Br)c(C(F)(F)F)nc23)cc1 [Example 99, 4-(3-bromo-4-oxo-2-(trifluoromethyl)-4H-pyrido[1,2-a]pyrimidin-9-yl)-N-(2-cyanoethyl)-N-methylbenzamide]"
89.2,,"Cc1c(C(F)(F)F)nc2c(-c3ccc(C(=O)N(C)CCC#N)cc3)cccn2c1=O [Example 100, N-(2-cyanoethyl)-N-methyl-4-(3-methyl-4-oxo-2-(trifluoromethyl)-4H-pyrido[1,2-a]pyrimidin-9-yl)benzamide]"
73.8,,"Cc1c(C(F)(F)F)nc2c(-c3ccc(C(=O)N[C@@H]4CCCOC4)cc3)cccn2c1=O [Example 102, 4-(3-methyl-4-oxo-2-(trifluoromethyl)-4H-pyrido[1,2-a]pyrimidin-9-yl)-N-((3R)-tetrahydro-2H-pyran-3-yl)benzamide]"
88.6,,"O=C(c1ccc(-c2cccn3c(=O)c(Br)c(C(F)(F)F)nc23)cc1)N1CCOC(C(F)F)C1 (centres unmarked) [Example 103, 3-bromo-9-(4-((2-(difluoromethyl)morpholin-4-yl)carbonyl)phenyl)-2-(trifluoromethyl)-4H-pyrido[1,2-a]pyrimidin-4-one]"
,85.9,"Cc1c(C(F)(F)F)nc2c(-c3ccc(C(=O)N4CCOC(C(F)F)C4)cc3)cccn2c1=O (centres unmarked) [Example 106, 9-(4-((2-(difluoromethyl)morpholin-4-yl)carbonyl)phenyl)-3-methyl-2-(trifluoromethyl)-4H-pyrido[1,2-a]pyrimidin-4-one]"
,86,"Cc1c(C(F)(F)F)nc2c(-c3ccc(C(=O)N4CCOC(C(F)F)C4)cc3)cccn2c1=O (centres unmarked) [Example 107, 9-(4-((2-(difluoromethyl)morpholin-4-yl)carbonyl)phenyl)-3-methyl-2-(trifluoromethyl)-4H-pyrido[1,2-a]pyrimidin-4-one]"
86.8,,"O=C(N[C@H]1CCCOC1)c1ccc(-c2cccn3c(=O)c(Br)c(C(F)(F)F)nc23)cc1F [Example 110, 4-(3-bromo-4-oxo-2-(trifluoromethyl)-4H-pyrido[1,2-a]pyrimidin-9-yl)-2-fluoro-N-((3S)-tetrahydro-2H-pyran-3-yl)benzamide]"
91,,"O=C(N[C@@H]1CCCOC1)c1ccc(-c2cccn3c(=O)c(Br)c(C(F)(F)F)nc23)cc1F [Example 111, 4-(3-bromo-4-oxo-2-(trifluoromethyl)-4H-pyrido[1,2-a]pyrimidin-9-yl)-2-fluoro-N-((3R)-tetrahydro-2H-pyran-3-yl)benzamide]"
,78.7,"O=C(c1ccc(-c2cccn3c(=O)c(Br)c(C(F)(F)F)nc23)cc1)N1CCOC(C(F)F)C1 (centres unmarked) [Example 113, 3-bromo-9-(4-((2-(difluoromethyl)morpholin-4-yl)carbonyl)phenyl)-2-(trifluoromethyl)-4H-pyrido[1,2-a]pyrimidin-4-one]"
,77.2,"O=C(c1ccc(-c2cccn3c(=O)c(Br)c(C(F)(F)F)nc23)cc1)N1CCOC(C(F)F)C1 (centres unmarked) [Example 114, 3-bromo-9-(4-((2-(difluoromethyl)morpholin-4-yl)carbonyl)phenyl)-2-(trifluoromethyl)-4H-pyrido[1,2-a]pyrimidin-4-one]"
